No end group written: not given here.
Tests used:
Assay in all cases: REVEAL Epitope Discovery System in vitro MHC-peptide binding assay
HLA-B*08:01 = HLA-B*08:01 (Homo sapiens, UniProt P01889, A93T/A95T/D138N/E176V/E187T/K202T/Q94N/R180D/S35A/V36M/Y33D/Y91F); details: binding normalized to positive control peptide set at 100%, >50 considered good or high affinity binding
Experimental: (§1) Actual binding affinities for certain HLA class I alleles (A*02:01, A*03:01, A*11:01, and B*08:01) were assessed in vitro for exemplary overlapping 9 amino acid peptide sequences within a portion of the 26 amino acid junction region spanning the CD28 and 4-1BB junction. Specifically, assessment was of a series of overlapping 9-mer peptides derived from the sequence […] (set forth in SEQ ID NO: 7), which contains a portion of the CD28 transmembrane domain and 4-1BB costimulatory domain spanning the junction between the domains (bond joining the two amino acids noted in underline). In addition, a series of overlapping 9-mer peptides of each of a number of different variants of this portion also were assessed, each variant containing a mutation or mutations in this region as described in Example 2.
(§2) The various 9-mer overlapping peptides were synthesized and their purity tested by MALDI-TOF Mass Spectrometry. The synthetic peptides were then incubated with recombinant MHC molecules to assess binding properties using the REVEAL Epitope Discovery System, which is a high-throughput binding assay that measures the degree to which each peptide is able to stabilize a ternary MHC-peptide complex (Prolmmune, Oxford, United Kingdom). Each peptide was separately tested for this ability with respect to each of the HLA class I alleles, normalized to the degree observed for a positive control (known T cell epitope for the relevant allele). The results are reported as a score, in which the binding was normalized to the positive control peptide set at 100%. In this analysis, a score of greater than 50 generally was considered to represent good or high affinity binding.

HLA-A*03:01 = HLA-A*03:01 (Homo sapiens, UniProt P04439); details: REVEAL score, binding normalized to positive control peptide set at 100%; greater than 50 considered good or high affinity binding
Experimental: as §1, §2

HLA-A*02:01 = HLA-A*02:01 (Homo sapiens, UniProt P04439, D140Y/D185E/D98H/E176V/E277Q/G131W/G231S/I119V/I121R/I166T/I218V/L300P/L318F/N151K/N90K/P208A/P217A/Q86G/Q94H/R138H/R169H/T345S); details: binding normalized to positive control peptide set at 100%, greater than 50 considered good or high affinity binding
Experimental: as §1, §2

HLA-A*11:01 = HLA-A*11:01 (Homo sapiens, UniProt P04439, A114D/D185E/E176A/F33Y/L180Q/S129P/T187R); details: binding normalized to positive control peptide set at 100%, >50 considered good or high affinity binding
Experimental: as §1, §2

Row | Sequence | B*08:01 In Vitro Score (HLA-B*08:01) | A*03:01 In Vitro (HLA-A*03:01) | A*02:01 In Vitro Score (HLA-A*02:01) | A*11:01 In Vitro Score (HLA-A*11:01)
1 | FIIFWVQRG | 0.60 | 0.40 | 16.80 | 1.50
2 | FWVHRGRKK | 0.00 | 3.60 | 1.60 | 5.60
3 | FWVLRGRKK | 0.00 | 0.40 | 3.30 | 5.00
4 | IFWVARGRK | 0.00 | 53.70 | 1.00 | 34.90
5 | IFWVKRGAK | 2.20 | 22.00 | 13.80 | 69.70
6 | IFWVKRGLK | 58.30 | 26.90 | 2.40 | 61.10
7 | IFWVKRGRK | 0.40 | 20.50 | 4.50 | 29.30
8 | IFWVQRGNK | 0.10 | 23.20 | 16.10 | 67.50
9 | IIFWVKRGA | 0.90 | 42.90 | 85.90 | 22.60
10 | IIFWVKRGH | 0.10 | 26.60 | 5.30 | 19.50
11 | IIFWVKRGR | 0.00 | 24.30 | 1.70 | 54.50
12 | IIFWVQRGA | 0.20 | 2.70 | 95.30 | 56.50
13 | IIFWVQRGR | 0.10 | 18.00 | 5.80 | 72.80
14 | VAFIIFWVK | 0.30 | 1.50 | 0.70 | 109.20
15 | VAFIIFWVL | 0.00 | 0.00 | 0.20 | 0.20
16 | VAFIIFWVQ | 0.20 | 0.20 | 5.30 | 3.90
17 | VAFIIFWVS | 0.10 | 0.70 | 70.60 | 25.10

Further lines, results first:

Row | B*08:01 In Vitro Score (HLA-B*08:01) | A*03:01 In Vitro (HLA-A*03:01) | A*02:01 In Vitro Score (HLA-A*02:01) | A*11:01 In Vitro Score (HLA-A*11:01) | Sequence
18 | 0.40 | 0.10 | 0.20 | 5.10 | FIIFWVSRG
19 | 0.30 | 4.70 | 4.30 | 13.20 | FWVKRGAKK
20 | 0.40 | 4.10 | 2.60 | 27.60 | FWVKRGHKK
21 | 0.00 | 2.20 | 3.50 | 6.50 | FWVKRGRKK
22 | 0.10 | 5.90 | 1.90 | 5.60 | FWVKRGSKK
23 | 0.00 | 2.70 | 2.20 | 18.30 | FWVQRGAKK
24 | 0.00 | 1.30 | 3.10 | 5.90 | FWVQRGNKK
25 | 1.90 | 6.40 | 5.20 | 5.70 | FWVQRGRKK
26 | 0.00 | 1.90 | 0.80 | 6.80 | FWVQRGSKK
27 | 0.00 | 2.90 | 1.50 | 6.30 | FWVSRGRKK
28 | 0.10 | 37.80 | 7.10 | 36.60 | IFWVHRGRK
29 | 1.20 | 10.40 | 2.40 | 47.90 | IFWVKRGSK
30 | 0.00 | 19.50 | 2.90 | 29.30 | IFWVLRGRK
31 | 0.20 | 17.00 | 11.70 | 61.30 | IFWVQRGAK
32 | 0.00 | 36.70 | 6.10 | 128.50 | IFWVQRGRK
33 | 0.00 | 20.30 | 33.50 | 103.30 | IFWVQRGSK
34 | 0.00 | 39.20 | 1.30 | 39.20 | IFWVSRGRK
35 | 0.20 | 30.10 | 4.70 | 77.50 | IIFWVHRGR
36 | 1.70 | 15.90 | 82.20 | 32.40 | IIFWVKRGL
37 | 0.00 | 3.60 | 13.00 | 29.00 | IIFWVQRGN
38 | 0.10 | 4.50 | 22.40 | 16.90 | IIFWVQRGS
39 | 0.00 | 25.30 | 2.60 | 68.90 | IIFWVSRGR
40 | 0.10 | 0.70 | 1.20 | 34.60 | VAFIIFWVR

Reference: patent publication US20200297760A1, “COMPOSITIONS AND METHODS FOR REDUCING IMMUNE RESPONSES AGAINST CHIMERIC ANTIGEN RECEPTORS” (Juno Therapeutics, Inc., priority 2015, published 2020)
